The results in this text go back to US11111237B2, “Bicyclic compound and use thereof” (SK BIOPHARMACEUTICALS CO., LTD., priority 2019, dated 2021).

For the experiment, the target named is PRMT5-MEP50 enzyme complex (Homo sapiens (Human), UniProt O14744). Briefly: PRMT5 enzyme activity in vitro assay (methylation of histone H4R3, ELISA absorbance at 450 nm). In kind it is biochemical. The conditions noted are these: SAM, histone H4 peptide, room temperature 2 hours, 8 points from 10 μM to 0.128 nM. In a few lines: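 Human PRMT5-MEP50 was prepared at 5 μg/mL with SAM at 2 μM and reacted 2 h at room temperature on plate-coated histone H4 (1-20) peptide. An 8-point 1:5 compound series ran from 10 μM to 0.128 nM. H4R3 methylation was detected by antibody/HRP ELISA at 450 nm to give IC50.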
Chain of PRMT5-MEP50 enzyme complex (O14744 2-637): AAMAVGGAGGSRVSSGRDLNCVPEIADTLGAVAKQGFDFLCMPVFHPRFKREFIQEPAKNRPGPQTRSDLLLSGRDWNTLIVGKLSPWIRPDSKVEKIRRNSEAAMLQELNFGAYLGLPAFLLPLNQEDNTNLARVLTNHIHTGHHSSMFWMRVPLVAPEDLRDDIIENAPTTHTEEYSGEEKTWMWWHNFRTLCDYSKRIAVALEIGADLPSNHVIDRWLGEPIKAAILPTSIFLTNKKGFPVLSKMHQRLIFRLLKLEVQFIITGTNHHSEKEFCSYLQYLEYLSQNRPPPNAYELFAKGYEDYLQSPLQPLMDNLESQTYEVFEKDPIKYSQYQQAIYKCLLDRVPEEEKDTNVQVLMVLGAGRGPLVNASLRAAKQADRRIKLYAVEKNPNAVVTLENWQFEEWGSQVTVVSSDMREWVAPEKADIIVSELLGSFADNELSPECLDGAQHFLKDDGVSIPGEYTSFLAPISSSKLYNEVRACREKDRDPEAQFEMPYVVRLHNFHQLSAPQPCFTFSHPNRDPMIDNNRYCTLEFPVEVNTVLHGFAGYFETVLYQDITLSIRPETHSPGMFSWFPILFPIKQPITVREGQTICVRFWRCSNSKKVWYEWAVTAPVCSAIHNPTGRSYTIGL
Chain of PRMT5-MEP50 enzyme complex (Q9BQA1 2-342 partner): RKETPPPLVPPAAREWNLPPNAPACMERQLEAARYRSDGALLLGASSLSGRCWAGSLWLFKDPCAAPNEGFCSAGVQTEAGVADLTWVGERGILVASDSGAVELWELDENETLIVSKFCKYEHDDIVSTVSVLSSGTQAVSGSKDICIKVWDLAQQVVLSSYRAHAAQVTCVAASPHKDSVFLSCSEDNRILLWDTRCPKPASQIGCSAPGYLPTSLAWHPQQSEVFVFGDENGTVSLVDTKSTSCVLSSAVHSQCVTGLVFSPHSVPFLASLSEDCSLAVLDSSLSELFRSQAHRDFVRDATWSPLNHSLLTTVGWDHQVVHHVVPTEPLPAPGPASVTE
In general terms: An ELISA detects its analyte on a solid surface through an enzyme-linked reagent.
By IC50 is commonly meant the concentration that inhibits the measured activity by half. Read a high IC50 as a need for much substance. With `CCN(CC)C(=O)COc1ccc2c(c1)OCCN(C[C@H](O)CN1CCc3ccccc3C1)C2=O` [Example 75, 2-[[4-[(2R)-3-(3,4-dihydro-1H-isoquinolin-2-yl)-2-hydroxy-propyl]-5-oxo-2,3-dihydro-1,4-benzoxazepin-8-yl]oxy]-N,N-diethyl-acetamide], the IC50 fell in the range of 100 to 1000 nM.

`O=C1CCC(Oc2ccc3c(c2)OCCN(C[C@H](O)CN2CCc4ccccc4C2)C3=O)CN1` (stereo partly drawn) [Example 76, 4-[(2R)-3-(3,4-dihydro-1H-isoquinolin-2-yl)-2-hydroxy-propyl]-8-[(6-oxo-3-piperidyl)oxy]-2,3-dihydro-1,4-benzoxazepin-5-one] came in with an IC50 of 100 to 1000 nM.

In turn, `CC(C)(C)OC(=O)N1CCC(Oc2ccc3c(c2)OCCN(C[C@H](O)CN2CCc4ccccc4C2)C3=O)CC1` [Example 77, tert-butyl 4-[[4-[(2R)-3-(3,4-dihydro-1H-isoquinolin-2-yl)-2-hydroxy-propyl]-5-oxo-2,3-dihydro-1,4-benzoxazepin-8-yl]oxy]piperidine-1-carboxylate] came in with an IC50 of 1 to 100 nM.

`CC(=O)N1CCC(Oc2ccc3c(c2)OCCN(C[C@H](O)CN2CCc4ccccc4C2)C3=O)CC1` [Example 78, 8-[(1-acetyl-4-piperidyl)oxy]-4-[(2R)-3-(3,4-dihydro-1H-isoquinolin-2-yl)-2-hydroxy-propyl]-2,3-dihydro-1,4-benzoxazepin-5-one] yielded an IC50 of 1 to 100 nM.

Compound `CC(=O)N1CCCC(Oc2ccc3c(c2)OCCN(C[C@H](O)CN2CCc4ccccc4C2)C3=O)C1` (stereo partly drawn) [Example 79, 8-[(1-acetyl-3-piperidyl)oxy]-4-[(2R)-3-(3,4-dihydro-1H-isoquinolin-2-yl)-2-hydroxy-propyl]-2,3-dihydro-1,4-benzoxazepin-5-one] came in with an IC50 of 100 to 1000 nM.

On to `CC(=O)N1CCC(Oc2ccc3c(c2)OCCN(C[C@H](O)CN2CCc4ccccc4C2)C3=O)C1` (stereo partly drawn) [Example 80, 8-(1-acetylpyrrolidin-3-yl)oxy-4-[(2R)-3-(3,4-dihydro-1H-isoquinolin-2-yl)-2-hydroxy-propyl]-2,3-dihydro-1,4-benzoxazepin-5-one], for which the IC50 was in the range of 100 to 1000 nM.

As for `CC(=O)N1CC[C@@H](Oc2ccc3c(c2)OCCN(C[C@H](O)CN2CCc4ccccc4C2)C3=O)C1` [Example 81, 8-[(3R)-1-acetylpyrrolidin-3-yl]oxy-4-[(2R)-3-(3,4-dihydro-1H-isoquinolin-2-yl)-2-hydroxy-propyl]-2,3-dihydro-1,4-benzoxazepin-5-one], the IC50 lay in the range of 1 to 100 nM.

In turn, `CC(=O)N1CC[C@H](Oc2ccc3c(c2)OCCN(C[C@H](O)CN2CCc4ccccc4C2)C3=O)C1` [Example 82, 8-[(3S)-1-acetylpyrrolidin-3-yl]oxy-4-[(2R)-3-(3,4-dihydro-1H-isoquinolin-2-yl)-2-hydroxy-propyl]-2,3-dihydro-1,4-benzoxazepin-5-one] showed an IC50 of 100 to 1000 nM.

As to `CC(=O)N1CC(Oc2ccc3c(c2)OCCN(C[C@H](O)CN2CCc4ccccc4C2)C3=O)C1` [Example 83, 8-(1-acetylazetidin-3-yl)oxy-4-[(2R)-3-(3,4-dihydro-1H-isoquinolin-2-yl)-2-hydroxy-propyl]-2,3-dihydro-1,4-benzoxazepin-5-one], the half-inhibitory concentration (IC50) fell in the range of 100 to 1000 nM.

In the case of `CCC(=O)N1CC(Oc2ccc3c(c2)OCCN(C[C@H](O)CN2CCc4ccccc4C2)C3=O)C1` [Example 84, 4-[(2R)-3-(3,4-dihydro-1H-isoquinolin-2-yl)-2-hydroxy-propyl]-8-(1-propanoylazetidin-3-yl)oxy-2,3-dihydro-1,4-benzoxazepin-5-one], the IC50 is 100 to 1000 nM.

On to `O=C1c2ccc(OC3CN(C(=O)C4CC4)C3)cc2OCCN1C[C@H](O)CN1CCc2ccccc2C1` [Example 85, 8-[1-(cyclopropanecarbonyl)azetidin-3-yl]oxy-4-[(2R)-3-(3,4-dihydro-1H-isoquinolin-2-yl)-2-hydroxy-propyl]-2,3-dihydro-1,4-benzoxazepin-5-one], for which the IC50 fell in the range of 1 to 100 nM.

`COC(=O)N1CC(Oc2ccc3c(c2)OCCN(C[C@H](O)CN2CCc4ccccc4C2)C3=O)C1` [Example 86, methyl 3-[[4-[(2R)-3-(3,4-dihydro-1H-isoquinolin-2-yl)-2-hydroxy-propyl]-5-oxo-2,3-dihydro-1,4-benzoxazepin-8-yl]oxy]azetidin-1-carboxylate] registered an IC50 of 100 to 1000 nM.

As for `CC(C)N1CCC(Oc2ccc3c(c2)OCCN(C[C@H](O)CN2CCc4ccccc4C2)C3=O)CC1` [Example 89, 4-[(2R)-3-(3,4-dihydro-1H-isoquinolin-2-yl)-2-hydroxy-propyl]-8-[(1-isopropyl-4-piperidyl)oxy]-2,3-dihydro-1,4-benzoxazepin-5-one], the IC50 was 1 to 100 nM.

`O=C1c2ccc(OC3CCN(C4CC4)CC3)cc2OCCN1C[C@H](O)CN1CCc2ccccc2C1` [Example 90, 8-[(1-cyclopropyl-4-piperidyl)oxy]-4-[(2R)-3-(3,4-dihydro-1H-isoquinolin-2-yl)-2-hydroxy-propyl]-2,3-dihydro-1,4-benzoxazepin-5-one]: the IC50 was in the range of 1 to 100 nM.

Compound `O=C1c2ccc(OC3CCN(C4CCC4)CC3)cc2OCCN1C[C@H](O)CN1CCc2ccccc2C1` [Example 91, 8-[(1-cyclobutyl-4-piperidyl)oxy]-4-[(2R)-3-(3,4-dihydro-1H-isoquinolin-2-yl)-2-hydroxy-propyl]-2,3-dihydro-1,4-benzoxazepin-5-one] returned an IC50 of 100 to 1000 nM.

On to `CN1CC(Oc2ccc3c(c2)OCCN(C[C@H](O)CN2CCc4ccccc4C2)C3=O)C1` [Example 93, 4-[(2R)-3-(3,4-dihydro-1H-isoquinolin-2-yl)-2-hydroxy-propyl]-8-(1-methylazetidin-3-yl)oxy-2,3-dihydro-1,4-benzoxazepin-5-one], for which the IC50 lay within 100 to 1000 nM.

`CCN1CC(Oc2ccc3c(c2)OCCN(C[C@H](O)CN2CCc4ccccc4C2)C3=O)C1` [Example 94, 4-[(2R)-3-(3,4-dihydro-1H-isoquinolin-2-yl)-2-hydroxy-propyl]-8-(1-ethylazetidin-3-yl)oxy-2,3-dihydro-1,4-benzoxazepin-5-one] yielded an IC50 of 100 to 1000 nM.

With `CC(C)N1CC(Oc2ccc3c(c2)OCCN(C[C@H](O)CN2CCc4ccccc4C2)C3=O)C1` [Example 95, 4-[(2R)-3-(3,4-dihydro-1H-isoquinolin-2-yl)-2-hydroxy-propyl]-8-(1-isopropylazetidin-3-yl)oxy-2,3-dihydro-1,4-benzoxazepin-5-one], the IC50 lay within 100 to 1000 nM.

For `O=C1c2ccc(OC3CN(C4COC4)C3)cc2OCCN1C[C@H](O)CN1CCc2ccccc2C1` [Example 96, 4-[(2R)-3-(3,4-dihydro-1H-isoquinolin-2-yl)-2-hydroxy-propyl]-8-[1-(oxetan-3-ylyl)azetidin-3-yl]oxy-2,3-dihydro-1,4-benzoxazepin-5-one], the IC50 was 100 to 1000 nM.

The compound `CCN1CC(COc2ccc3c(c2)OCCN(C[C@H](O)CN2CCc4ccccc4C2)C3=O)C1` [Example 97, 4-[(2R)-3-(3,4-dihydro-1H-isoquinolin-2-yl)-2-hydroxy-propyl]-8-[(1-ethylazetidin-3-yl)methoxy]-2,3-dihydro-1,4-benzoxazepin-5-one] yielded an IC50 of 100 to 1000 nM.

On to `CN1CCC(Oc2ccc3c(c2)OCCN(C[C@H](O)CN2CCc4ccccc4C2)C3=O)C1` (stereo partly drawn) [Example 98, 4-[(2R)-3-(3,4-dihydro-1H-isoquinolin-2-yl)-2-hydroxy-propyl]-8-(1-methylpyrrolidin-3-yl)oxy-2,3-dihydro-1,4-benzoxazepin-5-one], for which the IC50 lay in the range of 100 to 1000 nM.
